What was measured:
Mouse 3T3 cells = assay: Intracellular prostaglandin E2 in A23187-stimulated mouse 3T3 cells (EIA); assay type: cell-based; settings: 100 μM A23187, 5 minutes
Method: Mouse 3T3 cells were cultured in DMEM media containing 10% (v/v) foetal calf sera (FCS). For PGE2 assays, cells were seeded into standard 96-well tissue culture plates in 100 μl volumes (between 10^5-10^6 cells/ml). Cells were cultured overnight at 37° C. in a 95% air/5% CO2 atmosphere. At this stage a check was made to ensure cells remained viable with Trypan blue exclusion.
On day 2, working solutions of A23187 (1-100 μM final concentration) were prepared in DMEM media in order to stimulate the production of PGE2. Two controls were prepared (a DMSO and a culture media only control). Here cells were cultured in the absence of A23187. Test cell cultures were stimulated with the calcium ionophore A23187 for 5 minutes at room temperature. The culture supernatant was decanted, cells were washed with phosphate buffered saline and lysed with 100 μl/well 0.5% (w/v) DTAB prepared in assay buffer. A check for cell lysis was made with a second Trypan blue exclusion test.
Working PGE2 standards (2.5-320 pg/well) were prepared in polypropylene tubes with assay buffer containing 0.5% (w/v) DTAB. […] Non-specific binding was measured in the absence of PGE2 antisera. […] The optical densities were determined with a microtitre plate spectrophotometer set at 450 nm. Intracellular PGE2 levels were determined using log/linear analysis with reference to a standard curve. […]

ECV304 cells = assay: Intracellular IL-6 from IL-1β stimulated ECV304 cells (ELISA); assay type: cell-based, human; settings: 500 pg/ml IL-1β overnight
Method: ECV304 cells were cultured in M-199 media containing 10% (v/v) foetal calf sera (FCS). For IL-6 assays, cells were seeded into standard 96-well tissue culture plates in 100 μl volumes (between 10^5-10^6 cells/ml). Cells were cultured overnight at 37° C. in a 95% air/5% CO2 atmosphere. On day 2 working solutions of IL-1β (2-500 pg/ml; final concentration) were prepared in M-199 media in order to stimulate the production of IL-6. A culture media blank was prepared with cultured cells grown in the absence of IL-1β. Cells were again cultured overnight at 37° C. in a 95% air/5% CO2 atmosphere. On day 3, a 1% (wt) solution of DTAB was prepared in standard diluent. […]
Working standards (10.24400 pg/ml IL-6) were prepared in polypropylene tubes using assay buffer containing 1% (w/v) DTAB. […] Non-specific binding was measured in the absence of IL-6 (zero IL-6 standard). […] The optical density was determined with a microtitre plate spectrophotometer set at 450 nm. Interleukin-6 levels were determined using log/linear analysis with reference to a standard curve. […]
ECV304 cells were seeded at a density of 100,000 cells per well and cultured overnight to confluence in standard 96-well tissue culture plates as described under the methods section. […] Levels of IL-6 were measured in the samples with ELISA (the biotinylated antibody was prepared in the presence of 3% (w/v) alpha-cyclodextrin).

Molecule	Intracellular PGE2 levels (Mouse 3T3 cells)	Intracellular IL-6 levels (ECV304 cells)
CNc1ccc2oc(C[C@H]3O[C@@]4(CC[C@H]3C)O[C@H]([C@H](C)C(=O)c3ccc[nH]3)[C@H](C)C[C@H]4C)nc2c1C(=O)O [A23187]	over 400 pg/10^6 cells	–
IL-1β: Interleukin-1β (Amersham, ARM 17005), used to stimulate the production of IL-6	–	over 400 pg/10^6 cells
